Where “and” joins values, the source holds several entries; their conditions need not be identical. Equal values may be shown once.
Key:
HH-1 [1] = test: Light microscopy of Gram stained cells (cell morphology); format: cell-based, Staphylococcus pseudintermedius (MRSP); details: HH-1, 2.5 μM PNA, 6 h at 35 °C, 1000 × magnification
Description: (§1) Bacterial cultures were treated with anti-ftsZ PNA Z46 in broth as described in the viable count assay. After 6 h at 35 °C, cultures were pelleted, washed once in PBS, and re-suspended in 1/10 of original volume of the culture in PBS. Ten microliter aliquots were heat-fixed, Gram stained, and viewed under a light microscope (Olympus BX60) at 1000 × magnification. Images were captured using the Image-Pro Plus 5.0 (MediaCybernetics), and counting of purple and pink cells were carried out using ImageJ 1.44o (National Institute of Health, USA).

NCTC 13142 [2] = test: as above; format: cell-based, Staphylococcus aureus (MRSA); details: NCTC 13142, 7.5 μM PNA, 6 h at 35 °C, 1000 × magnification
Description: as §1

HH-1 [3] = test: Growth inhibition assay (OD550 growth curves); format: cell-based, Staphylococcus pseudintermedius (MRSP); details: HH-1, MHB with 6 μg/ml oxacillin, PNA 0–7.5 μM, 35 °C, 6 h, OD550, n = 3
Description: (§2) Anti-ftsZ PNAs were tested for effects on growth. Overnight MHB cultures were adjusted to 5 × 10^5 CFU/ml per well of a 96 well plate in MHB supplemented with 6 μg/ml oxacillin as described above. Anti-ftsZ PNA was added to final concentrations of 0, 1, 2.5, 5, 7.5 μM and incubated in a microplate reader (Spectramax 340PC, Molecular Devices) at 35 °C for 6 h. The optical density of the cultures was monitored at 550 nm with readings every 5 min after shaking for 5 s.

NCTC 13142 [4] = test: Growth inhibition assay (OD550 growth curves); format: cell-based, Staphylococcus aureus (MRSA); details: NCTC 13142, MHB with 6 μg/ml oxacillin, PNA 0–7.5 μM, 35 °C, 6 h, OD550, n = 3
Description: as §2

NCTC 13142 [5] = test: Oxacillin sensitization viable count assay (CFU on oxacillin plates); format: cell-based, Staphylococcus aureus (MRSA); details: for Sensitization to oxacillin (CFU reduction), result in words: NCTC 13142, PNA 2.5, 5, 7.5 μM (Z46: 7.5 μM)
Description: (§3) The viable count assay is more sensitive than the broth assay and was used to assess the effects of PNAs that performed well in the initial screen described above. In the viable count assay, 5 × 10^5 CFU/ml per well of culture was treated either with 2.5, 5 and 7.5 μM of PNA for NCTC 13142, or 1, 2.5 and 5 μM of PNA for HH-1 in MHB at 35 °C for 6 h. […] Agar plates were incubated at 35 °C for 24 h, and dilutions resulting in 30–300 colonies per plate were used to determine the viable count. Experimental repeats were carried out on separate days, and reductions in CFU of treated cultures were normalized to CFU of the untreated control culture on the day. Statistical analysis of CFU reductions was carried out with the paired Student’s t-Test in Microsoft Excel.

NCTC 13142 [6] = test: Oxacillin MIC and sensitization broth growth assay (broth microdilution, CLSI); format: cell-based, Staphylococcus aureus (MRSA); details: for Oxacillin MIC with anti-mecA PNA treatment: NCTC 13142, 5 μM PNA; for Sensitization to oxacillin in broth microdilution assays: NCTC 13142, PNAs with EJH-L1 or HIV-1 Tat carrier, data not shown
Description: (§4) The MRSA strain NCTC 13142 from Public Health England Culture Collections is a UK epidemic strain type EMRSA-15, SCCmec Type IV, and the MRSP strain HH-1 was isolated from a canine skin infection and is ST71, SCCmecII-III [19]. Bacteria were cultured on Columbia base agar (Oxoid, Basingstoke, UK) supplemented with 5 % horse blood (Oxoid) and 6 μg/ml oxacillin (Sigma Aldrich, UK) at 35 °C for 20 h. Overnight broth cultures were prepared from single bacterial colonies inoculated in 3 ml Mueller Hinton broth (MHB, Oxoid) supplemented with 6 μg/ml oxacillin and incubated at 35 °C for 20 h at 180 rpm on a rotary shaker.
(§5) The MIC of oxacillin was determined by broth microdilution according to CLSI guidelines. Briefly, overnight broth cultures of MRSA and MRSP were standardized to OD625 = 0.08–0.09 (equivalent to 10^8 CFU/ml) in MHB and further diluted 100-fold to obtain 10^6 CFU/ml. The bacterial suspension was then inoculated at 50 μl per well to a final concentration of 5 × 10^5 CFU/ml. Two-fold serial dilutions of oxacillin (2–512 μg/ml) were added to bacterial cultures at 50 μl per well to a final volume of 100 μl per well, and 96 well plates were incubated at 35 °C for 24 h. MICs were visually scored.
(§6) Overnight broth cultures were adjusted to 5 × 10^5 CFU/ml per well of a 96 well plate as described above and used either in a broth growth assay or a viable count assay. The broth growth assay was used as an initial screen of PNA efficacy because it was simple to carry out. […] Anti-mecA PNAs were added at either 2.5 or 5 μM. After incubation at 35 °C for 24 h, the MIC of oxacillin in combination with the PNAs in broth cultures were scored visually as recommended by CLSI guidelines.

HH-1 [7] = test: as above; format: cell-based, Staphylococcus pseudintermedius (MRSP); details: for Oxacillin MIC with anti-mecA PNA treatment: HH-1, 2.5 μM PNA; for Sensitization to oxacillin in broth microdilution assays: HH-1, PNAs with EJH-L1 or HIV-1 Tat carrier, data not shown
Description: as §4, §5, §6

HH-1 [8] = test: Oxacillin sensitization viable count assay (CFU on oxacillin plates); format: cell-based, Staphylococcus pseudintermedius (MRSP); details: for Sensitization to oxacillin (CFU reduction), result in words: HH-1, A73 and scrA 1, 2.5, 5 μM, Z46 0.5, 1, 2.5 μM, 6 h, plated on 16 μg/ml oxacillin, n = 3
Description: as §3

mecA mRNA [9] = test: mecA mRNA level by RT-qPCR; format: cell-based, Staphylococcus pseudintermedius (MRSP) HH-1; details: HH-1, 2.5 μM PNA, no oxacillin, normalized to proC and pyk, average, n = 3
Description: (§7) Growth of cultures in a 96 well plate was monitored by reading the optical density at 550 nm every 5 min, after shaking for 5 s in a microplate reader (Spectramax 340PC, […]). Cultures were harvested when the untreated control culture increased in OD550 ≈ 0.1. Cultures with the same PNA treatment but in different wells across the 96 well plate were pooled for total RNA extraction and DNase I treatment (Ribopure™ Bacteria kit, Life Technologies). RNA was checked for gDNA contamination by qPCR using gyrA primers (Additional file 1: Table S1) and SsoFast™ EvaGreen® Supermix (Bio-Rad) before cDNA synthesis using 50 ng RNA and iScript™ Reverse Transcription Supermix (Bio-Rad). Samples of cDNA were diluted 10-fold and 4 μl used in each qPCR reaction. Non-template controls were included for each primer pair in each run, and technical duplicates for each sample were included in each run.
(§8) Primer pairs for qPCR were designed by Primer3 with a Tm of 60 °C and product sizes of 100–200 bp (Additional file 1: Table S1). […] Primer efficiencies were determined using 10-fold serial dilutions of cDNA (10 pg-1 μg). […]
Total RNA and cDNA were prepared as described above. Raw Cq values were analysed in qbase + (Biogazelle, Belgium) with user-defined primer efficiencies (Additional file 1: Table S1) and expression stabilities (M value) of each candidate reference gene fabD, gyrA, proC, pta, pyk, rho, sodA, and tpiA were calculated as the average pairwise variation for each gene with all other tested genes. […] Stepwise exclusion of the gene with the highest M value allowed ranking of the tested genes according to their expression stability, and from this the optimal number of reference genes was calculated. […] Relative mRNA levels were then calculated as induced normalized Cq/uninduced normalized Cq, and analysed with paired Student’s t-Test in Microsoft Excel.

mecA mRNA [10] = test: mecA mRNA level by RT-qPCR; format: cell-based, Staphylococcus aureus (MRSA) NCTC 13142
Description: as §7, with “Non-template controls were included for each primer pair in each run, and technical duplicates for each sample were included in each run.” left out
as §8
Total RNA and cDNA were prepared as described above. Raw Cq values were analysed in qbase + (Biogazelle, Belgium) with user-defined primer efficiencies (Additional file 1: Table S1) and expression stabilities (M value) of each candidate reference gene fabD, gyrA, proC, pta, pyk, rho, sodA, and tpiA were calculated as the average pairwise variation for each gene with all other tested genes. […]

[11] = MHB, 35 °C, 24 h, scored visually, n=2
[12] = 6 h, plated on 16 μg/ml oxacillin, n = 3

## KFFKFFKFFK-eg1-AATTACTATA-NH2 [scrZ, scrambled control PNA for anti-ftsZ PNAs conjugated to the (KFF)3K peptide]
HH-1 [1]
  Cell morphology after Gram stain: appeared normal
NCTC 13142 [2]
  Cell morphology after Gram stain: appeared normal
HH-1 [3]
  Concentration that inhibited growth: 2.5 µM
NCTC 13142 [4]
  Concentration that inhibited growth: not growth inhibitory
NCTC 13142 [5]; 7.5 μM PNA, 6 h, plated on 16 μg/ml oxacillin, ratio to untreated control, mean, n = 3
  CFU reduction of NCTC 13142: 44%

## KFFKFFKFFK-O-caatatcctc-CONH2 [A101, anti-mecA PNA (−10 to −1) conjugated to cell-penetrating peptide …]
NCTC 13142 [6]; [11]
  Oxacillin MIC with anti-mecA PNA treatment: 512 mg/L
HH-1 [7]; [11]
  Oxacillin MIC with anti-mecA PNA treatment: 256 mg/L

## KFFKFFKFFK-eg1-TTCTAACATT-NH2 [Z19, anti-ftsZ PNA (−1 to +9) conjugated to the (KFF)3K peptide]
NCTC 13142 [4]
  Concentration that inhibited growth: ineffective

## KFFKFFKFFK-eg1-ttcatcaata-CONH2 [A55, anti-mecA PNA (−5 to +5) conjugated to cell-penetrating peptide …]
NCTC 13142 [6]; [11]
  Oxacillin MIC with anti-mecA PNA treatment: 256 mg/L
HH-1 [7]; [11]
  Oxacillin MIC with anti-mecA PNA treatment: 512 mg/L

## MINWKLRLKNK-O-catcaatatc-CONH2 [A73-EJH]
NCTC 13142 [6]
  Sensitization to oxacillin in broth microdilution assays: 2 fold
HH-1 [7]
  Sensitization to oxacillin in broth microdilution assays: 2 fold

## KFFKFFKFFK-O-cactataatc-CONH2 [scrA]
HH-1 [8]
  Sensitization to oxacillin (CFU reduction), result in words: significant sensitization
mecA mRNA [9]
  Reduction of mecA transcripts: did not have a significant effect
NCTC 13142 [5]; [12]
  Sensitization to oxacillin (CFU reduction), result in words: did not have an effect

## MINWKLRLKNK-O-cactataatc-CONH2 [scrA-EJH, scrambled PNA conjugated to EJH-L1 peptide (…)]
NCTC 13142 [6]
  Sensitization to oxacillin in broth microdilution assays: did not have an effect
HH-1 [7]
  Sensitization to oxacillin in broth microdilution assays: did not have an effect

## YGRKKRRQRRR-O-cactataatc-CONH2 [scrA-Tat, scrambled PNA conjugated to HIV 1-Tat peptide (…)]
NCTC 13142 [6]
  Sensitization to oxacillin in broth microdilution assays: did not have an effect
HH-1 [7]
  Sensitization to oxacillin in broth microdilution assays: did not have an effect

## YGRKKRRQRRR-O-catcaatatc-CONH2 [A73-Tat]
NCTC 13142 [6]
  Sensitization to oxacillin in broth microdilution assays: 2 fold
HH-1 [7]
  Sensitization to oxacillin in broth microdilution assays: 2 fold

## Cc1onc(-c2ccccc2)c1C(=O)N[C@@H]1C(=O)N2[C@@H]1SC(C)(C)[C@@H]2C(=O)O [Oxacillin, oxacillin]
NCTC 13142 [6]; NCTC 13142, 0 μM PNA, MHB, 35 °C, 24 h, scored visually, n=2
  Oxacillin MIC: 256 mg/L and 512 mg/L
NCTC 13142 [6]; Staphylococcus aureus, NCTC13142, 24 h, NCTC 13142, 0 μM PNA, MHB, 35 °C, 24 h, scored visually, n=2
  MIC: ≥ 256 µg/mL
HH-1 [7]; HH-1, 0 μM PNA, MHB, 35 °C, 24 h, scored visually, n=2
  Oxacillin MIC: 512 mg/L
HH-1 [7]; Staphylococcus pseudintermedius, 24 h, HH-1, 0 μM PNA, MHB, 35 °C, scored visually, n=2
  MIC: ≥ 256 µg/mL

## KFFKFFKFFK-eg1-atcaatatcc-CONH2 [A82, anti-mecA PNA (−8 to +2) conjugated to cell-penetrating peptide …]
NCTC 13142 [6]; [11]
  Oxacillin MIC with anti-mecA PNA treatment: 128 mg/L
HH-1 [7]; [11]
  Oxacillin MIC with anti-mecA PNA treatment: 256 mg/L

## KFFKFFKFFK-O-catcaatatc-CONH2 [A73, anti-mecA PNA (−7 to +3) conjugated to cell-penetrating peptide …]
NCTC 13142 [6]; [11]
  Oxacillin MIC with anti-mecA PNA treatment: 128 mg/L
NCTC 13142 [6]; NCTC 13142, 2.5–5 μM PNA, initial screening
  Sensitization of broth cultures to oxacillin: 4–8 fold
HH-1 [7]; [11]
  Oxacillin MIC with anti-mecA PNA treatment: 64 mg/L
HH-1 [7]; HH-1, 2.5–5 μM PNA, initial screening
  Sensitization of broth cultures to oxacillin: 4–8 fold
HH-1 [8]; 2.5 μM PNA, 6 h at 35 °C, plated on MH agar with 16 μg/ml oxacillin, relative to untreated control
  MRSP cells killed by oxacillin: 92%
HH-1 [8]
  Sensitization to oxacillin (CFU reduction), result in words: significantly sensitized
mecA mRNA [10]; MRSA, 7.5 μM PNA, p < 0.05
  mecA mRNA, result in words: reduced
mecA mRNA [10]; NCTC 13142, 5 μM PNA, no oxacillin, normalized to pta and gyrA, average, n = 3
  Reduction of mecA transcripts: 38%
mecA mRNA [9]
  Reduction of mecA transcripts: 40%
mecA mRNA [9]; listed as Anti-mecA PNA
  Reduction of mecA transcripts: reduced
NCTC 13142 [5]; 7.5 μM PNA, 6 h at 35 °C, plated on MH agar with 16 μg/ml oxacillin, relative to untreated control
  MRSA cells killed by oxacillin: 66%
NCTC 13142 [5]; [12]
  Sensitization to oxacillin (CFU reduction), result in words: significantly sensitized

Source: publication PMC4642645, “Oxacillin sensitization of methicillin-resistant Staphylococcus aureus and methicillin-resistant Staphylococcus pseudintermedius by antisense peptide nucleic acids in vitro” (BMC Microbiology, 2015)
